± gives the uncertainty stated by the source.
Experiment: xn = mol fraction of the nth substance listed

## CCCCCCC + CCCCO
298.15 K, 100 kPa, x2 = 0.1602
  viscosity: 0.4667 ± 0.013 mPa·s
298.15 K, 100 kPa, x2 = 0.3421
  viscosity: 0.6085 ± 0.017 mPa·s
298.15 K, 100 kPa, x2 = 0.5006
  viscosity: 0.8545 ± 0.023 mPa·s
298.15 K, 100 kPa, x2 = 0.6598
  viscosity: 1.191 ± 0.032 mPa·s
298.15 K, 100 kPa, x2 = 0.8398
  viscosity: 1.747 ± 0.048 mPa·s
298.15 K, 101.33 kPa, x2 = 0.077
  viscosity: 0.421 ± 0.0045 mPa·s
298.15 K, 101.33 kPa, x2 = 0.1523
  viscosity: 0.456 ± 0.0047 mPa·s
298.15 K, 101.33 kPa, x2 = 0.2853
  viscosity: 0.5468 ± 0.0053 mPa·s
298.15 K, 101.33 kPa, x2 = 0.4094
  viscosity: 0.667 ± 0.006 mPa·s
298.15 K, 101.33 kPa, x2 = 0.5024
  viscosity: 0.787 ± 0.0069 mPa·s
298.15 K, 101.33 kPa, x2 = 0.6136
  viscosity: 0.9824 ± 0.0082 mPa·s
298.15 K, 101.33 kPa, x2 = 0.7055
  viscosity: 1.204 ± 0.0097 mPa·s
298.15 K, 101.33 kPa, x2 = 0.7866
  viscosity: 1.453 ± 0.012 mPa·s
298.15 K, 101.33 kPa, x2 = 0.8595
  viscosity: 1.751 ± 0.014 mPa·s
298.15 K, 101.33 kPa, x2 = 0.8998
  viscosity: 1.942 ± 0.015 mPa·s
298.15 K, 101.33 kPa, x2 = 0.9352
  viscosity: 2.144 ± 0.017 mPa·s
298.15 K, 101.33 kPa, x2 = 0.9675
  viscosity: 2.342 ± 0.018 mPa·s
308.15 K, 101.33 kPa, x2 = 0.077
  viscosity: 0.3698 ± 0.0043 mPa·s
308.15 K, 101.33 kPa, x2 = 0.1523
  viscosity: 0.392 ± 0.0044 mPa·s
308.15 K, 101.33 kPa, x2 = 0.2853
  viscosity: 0.4571 ± 0.0048 mPa·s
308.15 K, 101.33 kPa, x2 = 0.4094
  viscosity: 0.5432 ± 0.0054 mPa·s
308.15 K, 101.33 kPa, x2 = 0.5024
  viscosity: 0.6232 ± 0.0059 mPa·s
308.15 K, 101.33 kPa, x2 = 0.6136
  viscosity: 0.7769 ± 0.007 mPa·s
308.15 K, 101.33 kPa, x2 = 0.7055
  viscosity: 0.9444 ± 0.0083 mPa·s
308.15 K, 101.33 kPa, x2 = 0.7866
  viscosity: 1.136 ± 0.0097 mPa·s
308.15 K, 101.33 kPa, x2 = 0.8595
  viscosity: 1.363 ± 0.012 mPa·s
308.15 K, 101.33 kPa, x2 = 0.8998
  viscosity: 1.515 ± 0.013 mPa·s
308.15 K, 101.33 kPa, x2 = 0.9352
  viscosity: 1.666 ± 0.014 mPa·s
308.15 K, 101.33 kPa, x2 = 0.9675
  viscosity: 1.821 ± 0.016 mPa·s

## CCCCCCCC + CCCCO
298.15 K, 101.33 kPa, x1 = 0.0832
  viscosity: 2.013 ± 0.013 mPa·s
298.15 K, 101.33 kPa, x1 = 0.1173
  viscosity: 1.84 ± 0.012 mPa·s
298.15 K, 101.33 kPa, x1 = 0.1519
  viscosity: 1.681 ± 0.011 mPa·s
298.15 K, 101.33 kPa, x1 = 0.2113
  viscosity: 1.443 ± 0.009 mPa·s
298.15 K, 101.33 kPa, x1 = 0.304
  viscosity: 1.152 ± 0.008 mPa·s
298.15 K, 101.33 kPa, x1 = 0.3599
  viscosity: 1.017 ± 0.007 mPa·s
298.15 K, 101.33 kPa, x1 = 0.4942
  viscosity: 0.788 ± 0.006 mPa·s
298.15 K, 101.33 kPa, x1 = 0.6053
  viscosity: 0.676 ± 0.005 mPa·s
298.15 K, 101.33 kPa, x1 = 0.7044
  viscosity: 0.615 ± 0.005 mPa·s
298.15 K, 101.33 kPa, x1 = 0.8459
  viscosity: 0.555 ± 0.004 mPa·s

## CCCCCO + CCCCO
293.15 K, 101.33 kPa, x2 = 0.1315
  viscosity: 3.867 ± 0.11 mPa·s
293.15 K, 101.33 kPa, x2 = 0.278
  viscosity: 3.7 ± 0.11 mPa·s
293.15 K, 101.33 kPa, x2 = 0.4762
  viscosity: 3.489 ± 0.1 mPa·s
293.15 K, 101.33 kPa, x2 = 0.5662
  viscosity: 3.392 ± 0.098 mPa·s
293.15 K, 101.33 kPa, x2 = 0.8222
  viscosity: 3.127 ± 0.09 mPa·s
293.15 K, 101.33 kPa, x2 = 0.9381
  viscosity: 3.013 ± 0.087 mPa·s
298.15 K, 101.33 kPa, x2 = 0.1315
  viscosity: 3.353 ± 0.097 mPa·s
298.15 K, 101.33 kPa, x2 = 0.278
  viscosity: 3.232 ± 0.094 mPa·s
298.15 K, 101.33 kPa, x2 = 0.4762
  viscosity: 3.038 ± 0.088 mPa·s
298.15 K, 101.33 kPa, x2 = 0.5662
  viscosity: 2.959 ± 0.086 mPa·s
298.15 K, 101.33 kPa, x2 = 0.8222
  viscosity: 2.738 ± 0.08 mPa·s
298.15 K, 101.33 kPa, x2 = 0.9381
  viscosity: 2.642 ± 0.077 mPa·s

From the CheMixHub viscosity set
